{"source": "patent US20030236218A1", "about": "“Aryl phosphate derivatives of d4T with selective activity against adenovirus and HIV” (priority 2002, published 2003)", "key": {"Stability in plasma": {"test": "Stability in plasma", "format": "in vitro ADME", "method": "Plasma samples (200 μL) were mixed 1:4 with acetone (800 μL) and vortexed for at least 30 seconds. Following centrifugation, the supernatant was transferred into a clean tube and was dried under nitrogen. A 50 μL solution of 50% methanol in 200 mM HCl was used to reconstitute the extraction residue, and 40 μL was injected into the HPLC.\n(§1) The whole blood samples were placed in a 37° C. water bath, while plasma samples were stored at −20° C. At a predetermined time, an aliquot (100 μl) of spiked whole blood or plasma was extracted by adding 400 μl of acetone to induce precipitation of proteins, as described above."}, "Stability in whole blood": {"test": "Stability in whole blood", "format": "in vitro ADME", "method": "as §1"}, "[1]": {"test": "Stability in simulated intestinal fluid", "format": "in vitro ADME", "details": "100 μM, 37° C.", "method": "The spiked fluids were then placed in a 37° C. water bath. At a predetermined time, 100 μI aliquots of the spiked gastric or intestinal fluid were extracted by adding 400 μl of acetone as discussed above."}, "[2]": {"test": "Hydrolysis rate in alkali conditions", "format": "physicochemical", "method": "Statistical analysis. Each drug was tested at 6-7 different concentrations ranging from 0.0001 μM to 100 μM. Each assay was set up in triplicate wells and repeated 1-3 times. An IC50 value was calculated from each set of triplicate wells using nonlinear regression modeling of the exponential form of the linearized equation (Statview, SAS Institute, Inc., Cary, N.C.). Hydrolysis rates were determined by fitting single exponential decay equations to the disappearance of the compound in alkali conditions (all R^2 values greater than 0.85). The IC50 values obtained were correlated to the log transformed hydrolysis rate constants by fitting a linear model (JMP Software, SAS Institute Inc., Cary, N.C.). P-values less than 0.05 were deemed significant."}, "[3]": {"details": "mice, cited from earlier work"}}}
{"compound": "COC(=O)C(C)NP(=O)(OC[C@@H]1C=C[C@H](n2cc(C)c(=O)[nH]c2=O)O1)Oc1ccc(Br)cc1", "note": "(stereo partly shown) [Compound 113, 5′-[4-Bromophenyl methoxylaninylphosphate]-2′, 3′-didehydro-3′-deoxy thymidine]", "values": [{"measurement": "time to complete decomposition in plasma", "setting": "Stability in plasma; 250 μM", "result": "≤ 30", "unit": "min"}, {"measurement": "decomposed following incubation with plasma", "setting": "Stability in plasma; 250 μM, after 5 minutes", "result": "over 95%"}, {"measurement": "stability in plasma (in words)", "setting": "Stability in plasma; spiked plasma, 250 μM compound 113, 100 μM Ala-d4T-MP (followed for 1 day)", "result": "very unstable"}, {"measurement": "time to complete decomposition in whole blood", "setting": "Stability in whole blood; 250 μM, 37° C.", "result": "≤ 30", "unit": "min"}, {"measurement": "decomposed in whole blood", "setting": "Stability in whole blood; 250 μM, 37° C., 5 minutes", "result": 68, "unit": "%"}, {"measurement": "decomposed in whole blood", "setting": "Stability in whole blood; 250 μM, 37° C., 10 minutes", "result": 87, "unit": "%"}, {"measurement": "decomposed in whole blood", "setting": "Stability in whole blood; 250 μM, 37° C., 15 minutes", "result": 92, "unit": "%"}, {"measurement": "stability in whole blood (in words)", "setting": "Stability in whole blood; spiked whole blood 37° C., 250 μM compound 113, 100 μM Ala-d4T-MP (followed for 1 day)", "result": "very unstable"}, {"measurement": "stability in intestinal fluid (in words)", "setting": "[1]", "result": "not stable"}, {"measurement": "decomposed in intestinal fluid", "setting": "[1]; within 2 hours", "result": "approximately 94%"}, {"measurement": "Hydrolysis Rate", "setting": "[2]", "result": 0.0210, "unit": "min⁻¹"}, {"measurement": "toxicity on daily administration", "setting": "[3]; intraperitoneally or orally for up to 8 consecutive weeks, cumulative dose levels as high as 6.4 g/kg", "result": "not associated with any detectable toxicity"}, {"measurement": "acute or subacute toxicity", "setting": "[3]; single intraperitoneal or oral bolus dose levels as high as 500 mg/kg", "result": "very well tolerated without any detectable acute or subacute toxicity"}]}
